How the values were obtained:
PPARα = biological target: T1, PPARα (Homo sapiens, UniProt Q07869); assay: PPARa CALUX; type: cell-based; conditions: 24 h exposure, lowest effect level PC10, means from 3 assay runs
T1 construct: host or cells: U-2 OS
T1 sequence (Q07869 1-468): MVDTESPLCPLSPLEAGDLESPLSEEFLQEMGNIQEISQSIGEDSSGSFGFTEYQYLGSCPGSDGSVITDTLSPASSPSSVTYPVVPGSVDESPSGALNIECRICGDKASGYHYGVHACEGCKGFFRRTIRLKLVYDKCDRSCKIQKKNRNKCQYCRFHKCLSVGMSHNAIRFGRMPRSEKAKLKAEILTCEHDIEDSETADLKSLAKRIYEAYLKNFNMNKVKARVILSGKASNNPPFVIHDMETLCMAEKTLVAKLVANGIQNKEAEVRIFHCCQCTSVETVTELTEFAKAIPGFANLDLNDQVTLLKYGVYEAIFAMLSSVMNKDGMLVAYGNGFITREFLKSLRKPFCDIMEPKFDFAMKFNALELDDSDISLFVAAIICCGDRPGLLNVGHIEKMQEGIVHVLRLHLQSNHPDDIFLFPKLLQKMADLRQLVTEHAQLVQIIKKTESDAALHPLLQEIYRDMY
Procedure: (§1) After 24 h, exposure medium was prepared. […] All samples were tested in triplicates. […] Fig. SM_4. […] Fig. SM_4.
(§2) Cell line Endpoint effect Reference compound […]
PPARa CALUX Peroxisomeproliferator activated receptor agonists PC10 GW7647 […]
(§3) Supplementary Material SM_4
(§4) Overview of CALUX assays.
(§5) This is defined as the concentration of test compound […]
(§6) for an antagonist assay is a PC20.
(§7) PC = positive control. FI = fold induction. PC10: concentration where test compound causes an activation equal to 10% of the maximum effect (positive control). PC20: concentration where test compound causes […]
(§8) FI=1.5: concentration where test
(§9) (A) exemplary graph of concentration- […]
(§10) receptor antagonism assay with PC20 as lowest-effect-level. (C) exemplary graph for assay with 1.5 fold inductionas lowest effect level. 9

PPARδ = biological target: T2, PPARδ (Homo sapiens, UniProt Q03181); assay: PPARd CALUX; type: cell-based; conditions: 24 h exposure, lowest effect level PC10, means from 3 assay runs
T2 construct: host or cells: U-2 OS
T2 sequence (Q03181 1-441): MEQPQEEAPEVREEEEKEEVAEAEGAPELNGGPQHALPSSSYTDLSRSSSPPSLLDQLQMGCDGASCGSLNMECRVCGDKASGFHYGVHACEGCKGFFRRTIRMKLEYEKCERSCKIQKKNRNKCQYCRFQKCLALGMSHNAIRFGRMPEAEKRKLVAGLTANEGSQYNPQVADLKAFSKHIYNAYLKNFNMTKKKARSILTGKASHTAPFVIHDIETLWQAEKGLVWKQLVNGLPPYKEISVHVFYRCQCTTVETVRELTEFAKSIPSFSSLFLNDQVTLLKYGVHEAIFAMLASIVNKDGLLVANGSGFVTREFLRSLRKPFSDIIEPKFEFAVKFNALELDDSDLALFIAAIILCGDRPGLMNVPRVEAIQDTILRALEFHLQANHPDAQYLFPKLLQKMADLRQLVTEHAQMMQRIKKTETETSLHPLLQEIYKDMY

PPARγ = biological target: T3, PPARγ (Homo sapiens, UniProt P37231); assay: PPARg2 CALUX; type: cell-based; conditions: 24 h exposure, lowest effect level PC10, means from 3 assay runs
T3 construct: host or cells: U-2 OS
T3 sequence (P37231 1-505): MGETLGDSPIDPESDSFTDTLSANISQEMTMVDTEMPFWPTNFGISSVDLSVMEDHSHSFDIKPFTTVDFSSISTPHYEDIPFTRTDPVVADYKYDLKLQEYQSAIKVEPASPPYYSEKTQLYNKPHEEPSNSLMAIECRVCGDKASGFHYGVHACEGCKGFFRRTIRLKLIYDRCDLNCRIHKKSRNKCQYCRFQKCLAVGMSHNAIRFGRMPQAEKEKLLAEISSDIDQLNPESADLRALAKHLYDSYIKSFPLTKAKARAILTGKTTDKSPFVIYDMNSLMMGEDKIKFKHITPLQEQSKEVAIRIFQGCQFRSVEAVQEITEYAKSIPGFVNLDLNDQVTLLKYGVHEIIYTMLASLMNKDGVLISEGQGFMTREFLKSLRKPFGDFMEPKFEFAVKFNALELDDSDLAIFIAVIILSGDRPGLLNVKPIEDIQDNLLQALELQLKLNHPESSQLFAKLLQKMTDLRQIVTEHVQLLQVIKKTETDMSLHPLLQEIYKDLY
Procedure: as §1, §2, §3, §4, §5, §6, §7, §8, §9, §10

[1] = system: p53-dependent pathway activation / genotoxicity; type: cell-based, human; conditions: 24 h exposure, lowest effect level FI=1.5, means from 3 assay runs
Procedure: as §1, §3, §4, §5, §6, §7, §8, §9, §10

[2] = system: U-2 OS reporter cell lines battery; assay: CALUX reporter gene assay battery as a whole; conditions: all CALUX assays, 13 concentrations, 24 h exposure
[3] = system: AP1 pathway activation / cell cycle control; assay: AP-1 CALUX; type: cell-based, human; conditions: 24 h exposure, lowest effect level PC10, means from 3 assay runs
Procedure: as §1, §3, §4, §5, §6, §7, §8, §9, §10

Nrf2 (Oxidative stress) = assay: Nrf2 CALUX; type: cell-based, human; conditions: 24 h exposure, lowest effect level FI=1.5, means from 3 assay runs
Procedure: as §1, §3, §4, §5, §6, §7, §8, §9, §10

[4] = parameters: method as in Sommar et al. 2000; conditions: KAW < 0.03 considered non-volatile; ref Sommar et al. 2000; cited from earlier work
U-2 OS cells = assay: Cytotox CALUX; conditions: 24 h exposure, lowest effect level PC20, means from 3 assay runs

Row | SMILES | PoD PPARα - ago (PPARα) | PoD PPARδ - ago (PPARδ) | PoD PPARγ - ago (PPARγ) | PoD p53 [1] | response profile over the CALUX battery (in words) [2] | PoD AP1 [3] | PoD Nrf2 (Nrf2 (Oxidative stress)) | air-water partition coefficient KAW [4] | PoD cytotoxicity (U-2 OS cells)
1 | CC(C)Cc1ccc(C(C)C(=O)O)cc1 (centres unmarked) [Ibuprofen] | 4.3 -log(M) | 4.0 -log(M) | 4.0 -log(M) | 3.0 -log(M) | activated all three isoforms of the peroxisome proliferator activated receptor |  |  |  | 
2 | [Cl][Hg][Cl] [Mercury chloride] |  |  |  | 5.7 -log(M) | only activated stress pathway related assays | 5.8 -log(M) | 5.5 -log(M) | 0.02 | 4.7 -log(M)

Source: article PMC7367925, “The EU-ToxRisk method documentation, data processing and chemical testing pipeline for the regulatory use of new approach methods” (Archives of Toxicology, 2020)
